Biological target: T1, ileal transporter of the rabbit (RIBAT) (Oryctolagus cuniculus, UniProt Q28727)
T1 construct: contained the total protein-coding region of the RIBAT; expressed in transfected cells; host or cells: CHO cells, stably transfected with pRIBAT8 (pcDNA1neo vector), G418-selected clonal line
T1 sequence (Q28727 1-347): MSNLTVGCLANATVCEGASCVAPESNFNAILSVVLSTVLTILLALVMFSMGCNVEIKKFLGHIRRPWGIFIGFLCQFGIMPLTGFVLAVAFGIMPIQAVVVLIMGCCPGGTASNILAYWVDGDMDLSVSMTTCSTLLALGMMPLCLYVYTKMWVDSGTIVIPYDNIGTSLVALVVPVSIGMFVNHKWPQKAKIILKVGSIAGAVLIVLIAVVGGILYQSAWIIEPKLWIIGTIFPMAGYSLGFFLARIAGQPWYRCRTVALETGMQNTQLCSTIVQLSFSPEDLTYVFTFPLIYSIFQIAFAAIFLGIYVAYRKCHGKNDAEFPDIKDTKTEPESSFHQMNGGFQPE
Test: Inhibition of [24-14C]-taurocholic acid uptake in CHO/pRIBAT8 cells
Format: cell-based
Details: 21° C., 30 minutes
Source text: These were derivatives of the generally known "Chinese hamster ovary" (CHO) cell line, which on account of incorporated expression plasmids additionally produced sodium-dependent bile acid transporters. The first cell line (CHO/pRIBAT8) was in this case the ileal transporter of the rabbit (RIBAT), the second (CHO/pHIBAT8) the ileal transporter of the human (HIBAT) and the third (CHO/pHLBAT5) the hepatic transporter of the human. All plasmids were based on the standard plasmid pCDNA1neo, which as important elements has a cytomegaloviral promoter for the permanent expression of heterologous genes and a gene for the production of cell resistance against the substance G418.
The starting material for the production of the plasmid for the RIBAT-producing cell line (pRIBAT8) was total RNA of the terminal ileum of the rabbit. […]
For the preparation of the genetically modified cell lines, CHO cells were transfected with DNA from pRIBAT8, pHIBAT8 or pHLBAT5 and cells which developed resistance against the selection substance G418 were selectively additionally cultured by addition of the substance to the cell medium. […] They could thereby be easily differentiated from cells without intact bile acid transporters with the aid of a fluorescence microscope. […]

CCCCC1(CC)CS(=O)(=O)c2cc(O[C@@H]3O[C@H](C(=O)O)[C@@H](O)[C@H](O)[C@H]3O)ccc2C(c2ccccc2)N1 (stereo partly shown) [Example 3]
IC50: 70 nM

From US6020330A, “Hypolipidemic 1,4-benzothiazepine-1,1-dioxides” (Hoechst Aktiengesellschaft, priority 1997, dated 2000)
